The values below come from patent US20100204203A1, “Chemical Compounds 637: Pyridopyrimidinediones as PDE4 Inhibitors” (priority 2007, published 2010).

This experiment has as its target recombinant Human Phosphodiesterase B2 (PDE4B2) (Homo sapiens, UniProt Q07343). The experiment can be described thus: Human Phosphodiesterase B2 Radiometric Assay (yttrium silicate SPA beads, [3H]cyclic AMP). Format: biochemical. The note with it: recombinant human PDE4B2, radiometric SPA assay, 8 nM [3H]cyclic AMP; read-out: PDE4B2 pIC50 (converted). Put shortly:
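Compounds were preincubated 30 min at 30 °C with 0.1 mg/mL PDE4B2 in 50 mM HEPES pH 7.5, 8.3 mM MgCl2, 1.7 mM EGTA, 0.01% Brij 35. Then 8 nM [3H]cAMP was added for 20 min, stopped with yttrium silicate SPA beads plus 18 mM ZnSO4 capturing product 5′AMP; pIC50 by curve fitting.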

recombinant Human Phosphodiesterase B2 (PDE4B2), sequence (Q07343 1-564 isoform Q07343-2): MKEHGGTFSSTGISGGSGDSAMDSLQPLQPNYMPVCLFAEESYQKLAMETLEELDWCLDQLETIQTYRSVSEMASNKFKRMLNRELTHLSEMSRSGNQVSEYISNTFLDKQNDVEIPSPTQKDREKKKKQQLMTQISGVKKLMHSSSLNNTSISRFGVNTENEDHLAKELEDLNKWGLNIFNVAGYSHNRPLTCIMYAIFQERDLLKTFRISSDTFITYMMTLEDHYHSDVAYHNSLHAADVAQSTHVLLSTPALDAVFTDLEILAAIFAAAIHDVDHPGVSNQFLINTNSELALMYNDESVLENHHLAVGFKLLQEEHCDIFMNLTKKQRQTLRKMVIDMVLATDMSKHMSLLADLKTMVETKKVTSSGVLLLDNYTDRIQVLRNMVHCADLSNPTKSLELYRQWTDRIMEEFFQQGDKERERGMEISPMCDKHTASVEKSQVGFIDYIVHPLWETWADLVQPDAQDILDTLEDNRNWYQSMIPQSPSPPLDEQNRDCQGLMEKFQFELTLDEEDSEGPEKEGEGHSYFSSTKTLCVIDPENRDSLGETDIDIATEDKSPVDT

Take `Cc1cc(C(=O)N[C@H]2CC[C@@H](n3c(=O)c4cc(F)cnc4n(-c4cccc(-c5ccc(CN(C)C(C)(C)C)cc5)c4)c3=O)CC2)nn1C` [Example 131, N-{cis-4-[1-(4′-{[tert-butyl(methyl)amino]methyl}biphenyl-3-yl)-6-fluoro-2,4-dioxo-1,4-dihydropyrido[2,3-d]pyrimidin-3(2H)-yl]cyclohexyl}-1,5-dimethyl-1H-pyrazole-3-carboxamide]: the IC50 was 126 pM.

As for `CCCCN(C)Cc1ccc(-c2cccc(-n3c(=O)n([C@H]4CC[C@@H](NC(=O)c5cn6c(n5)CCCC6)CC4)c(=O)c4cc(F)cnc43)c2)cc1` [Example 132, N-{cis-4-[1-(4′-{[butyl(methyl)amino]methyl}biphenyl-3-yl)-6-fluoro-2,4-dioxo-1,4-dihydropyrido[2,3-d]pyrimidin-3(2H)-yl]cyclohexyl}-5,6,7,8-tetrahydroimidazo[1,2-a]pyridine-2-carboxamide], the IC50 was 25.1 pM.

As for `CN(C)CCN(C)Cc1ccc(-c2cccc(-n3c(=O)n([C@H]4CC[C@@H](NC(=O)c5cn6c(n5)CCCC6)CC4)c(=O)c4cc(F)cnc43)c2)cc1` [Example 133, N-{cis-4-[1-(4′-{[[2-(dimethylamino)ethyl](methyl)amino]methyl}biphenyl-3-yl)-6-fluoro-2,4-dioxo-1,4-dihydropyrido[2,3-d]pyrimidin-3(2H)-yl]cyclohexyl}-5,6,7,8-tetrahydroimidazo[1,2-a]pyridine-2-carboxamide], the IC50 was 10 pM.

With `CC(C)N1CCN(Cc2ccc(-c3cccc(-n4c(=O)n([C@H]5CC[C@@H](NC(=O)c6cn7c(n6)CCCC7)CC5)c(=O)c5cc(F)cnc54)c3)cc2)CC1` [Example 134, N-{cis-4-[6-fluoro-1-{4′-[(4-isopropylpiperazin-1-yl)methyl]biphenyl-3-yl}-2,4-dioxo-1,4-dihydropyrido[2,3-d]pyrimidin-3(2H)-yl]cyclohexyl}-5,6,7,8-tetrahydroimidazo[1,2-a]pyridine-2-carboxamide], the IC50 was 7.94 pM.

Regarding `O=C(N[C@H]1CC[C@@H](n2c(=O)c3cc(F)cnc3n(-c3cccc(-c4ccc(CN5CCSCC5)cc4)c3)c2=O)CC1)c1cn2c(n1)CCCC2` [Example 135, N-{cis-4-[6-fluoro-2,4-dioxo-1-[4′-(thiomorpholin-4-ylmethyl)biphenyl-3-yl]-1,4-dihydropyrido[2,3-d]pyrimidin-3(2H)-yl]cyclohexyl}-5,6,7,8-tetrahydroimidazo[1,2-a]pyridine-2-carboxamide], the IC50 is 3.16 pM.

For the molecule `CN(Cc1ccc(-c2cccc(-n3c(=O)n([C@H]4CC[C@@H](NC(=O)c5cn6c(n5)CCCC6)CC4)c(=O)c4cc(F)cnc43)c2)cc1)C(C)(C)C` [Example 136, N-{cis-4-[1-(4′-{[tert-butyl(methyl)amino]methyl}biphenyl-3-yl)-6-fluoro-2,4-dioxo-1,4-dihydropyrido[2,3-d]pyrimidin-3(2H)-yl]cyclohexyl}-5,6,7,8-tetrahydroimidazo[1,2-a]pyridine-2-carboxamide], the IC50 is 31.6 pM.

For the molecule `CN(C)C(=O)CN1CCN(Cc2ccc(-c3cccc(-n4c(=O)n([C@H]5CC[C@@H](NC(=O)c6cn7c(n6)CCCC7)CC5)c(=O)c5cc(F)cnc54)c3)cc2)CC1` [Example 137, N-{cis-4-[1-[4′-({4-[2-(dimethylamino)-2-oxoethyl]piperazin-1-yl}methyl)biphenyl-3-yl]-6-fluoro-2,4-dioxo-1,4-dihydropyrido[2,3-d]pyrimidin-3(2H)-yl]cyclohexyl}-5,6,7,8-tetrahydroimidazo[1,2-a]pyridine-2-carboxamide], the IC50 was 12.6 pM.

For `C[C@@H]1CN(Cc2ccc(-c3cccc(-n4c(=O)n([C@H]5CC[C@@H](NC(=O)c6cn7c(n6)CCCC7)CC5)c(=O)c5cc(F)cnc54)c3)cc2)C[C@H](C)O1` [Example 138, N-{cis-4-[1-(4′-{[(2R,6S)-2,6-dimethylmorpholin-4-yl]methyl}biphenyl-3-yl)-6-fluoro-2,4-dioxo-1,4-dihydxopyrido[2,3-d]pyrimidin-3(2H)-yl]cyclohexyl}-5,6,7,8-tetrahydroimidazo[1,2-a]pyridine-2-carboxamide], the IC50 was 3.16 pM.

For the molecule `CN(Cc1ccc(-c2cccc(-n3c(=O)n([C@H]4CC[C@@H](NC(=O)C5(N(C)C)CC5)CC4)c(=O)c4cc(F)cnc43)c2)cc1)C(C)(C)C` [Example 207, N-{cis-4-[1-(4′-{[tert-butyl(methyl)amino]methyl}biphenyl-3-yl)-6-fluoro-2,4-dioxo-1,4-dihydropyrido[2,3-d]pyrimidin-3(2H)-yl]cyclohexyl}-1-(dimethylamino)cyclopropanecarboxamide], the IC50 is 316 pM.

In the case of `CCCN1CCN(Cc2ccc(-c3cccc(-n4c(=O)n([C@H]5CC[C@@H](NC(=O)C6(N(C)C)CC6)CC5)c(=O)c5cc(F)cnc54)c3)cc2)CC1` [Example 208, 1-(dimethylamino)-N-{cis-4-[6-fluoro-2,4-dioxo-1-{4′-[(4-propylpiperazin-1-yl)methyl]biphenyl-3-yl}-1,4-dihydropyrido[2,3-d]pyrimidin-3(2H)-yl]cyclohexyl} cyclopropanecarboxamide], the IC50 is 12.6 pM.

As to `C[C@@H]1CN(Cc2ccc(-c3cccc(-n4c(=O)n([C@H]5CC[C@@H](NC(=O)C6(N(C)C)CC6)CC5)c(=O)c5cc(F)cnc54)c3)cc2)C[C@H](C)O1` [Example 209, 1-(dimethylamino)-N-{cis-4-[1-(4′-{[(2R,6S)-2,6-dimethylmorpholin-4-yl]methyl}biphenyl-3-yl)-6-fluoro-2,4-dioxo-1,4-dihydropyrido[2,3-d]pyrimidin-3(2H)-yl]cyclohexyl} cyclopropanecarboxamide], the IC50 was 6.31 pM.

In the case of `CN(C)C1(C(=O)N[C@H]2CC[C@@H](n3c(=O)c4cc(F)cnc4n(-c4cccc(-c5ccc(CN6CCN(C7CCCC7)CC6)cc5)c4)c3=O)CC2)CC1` [Example 210, N-{cis-4-[1-{4′-[(4-cyclopentylpiperazin-1-yl)methyl]biphenyl-3-yl}-6-fluoro-2,4-dioxo-1,4-dihydropyrido[2,3-d]pyrimidin-3(2H)-yl]cyclohexyl}-1-(dimethylamino)cyclopropane-carboxamide], the IC50 is 20 pM.

Consider `CN(C)C1(C(=O)N[C@H]2CC[C@@H](n3c(=O)c4cc(F)cnc4n(-c4cccc(-c5ccc(CN6CCN(CCO)CC6)cc5)c4)c3=O)CC2)CC1` [Example 211, 1-(dimethylamino)-N-{cis-4-[6-fluoro-1-(4′-{[4-(2-hydroxyethyl)piperazin-1-yl]methyl}biphenyl-3-yl)-2,4-dioxo-1,4-dihydropyrido[2,3-d]pyrimidin-3(2H)-yl]cyclohexyl}cyclopropanecarboxamide], for which the IC50 is 15.8 pM.

As to `CN(C)C1(C(=O)N[C@H]2CC[C@@H](n3c(=O)c4cc(F)cnc4n(-c4cccc(-c5ccc(CN6CCN(CC(=O)N7CCOCC7)CC6)cc5)c4)c3=O)CC2)CC1` [Example 212, 1-(dimethylamino)-N-{cis-4-[6-fluoro-1-(4′-{[4-(2-morpholin-4-yl-2-oxoethyl)piperazin-1-yl]methyl}biphenyl-3-yl)-2,4-dioxo-1,4-dihydropyrido[2,3-d]pyrimidin-3(2H)-yl]cyclohexyl} cyclopropanecarboxamide], the IC50 was 12.6 pM.

For `CC(=O)N1CCN(Cc2ccc(-c3cccc(-n4c(=O)n([C@H]5CC[C@@H](NC(=O)c6cc(C)n(C)n6)CC5)c(=O)c5cc(F)cnc54)c3)cc2)CC1` [Example 213, N-{cis-4-[1-{4′-[(4-acetylpiperazin-1-yl)methyl]biphenyl-3-yl}-6-fluoro-2,4-dioxo-1,4-dihydropyrido[2,3-d]pyrimidin-3(2H)-yl]cyclohexyl}-1,5-dimethyl-1H-pyrazole-3-carboxamide], the IC50 is 15.8 pM.

With `Cc1cc(C(=O)N[C@H]2CC[C@@H](n3c(=O)c4cc(F)cnc4n(-c4cccc(-c5ccc(CN6CCN(c7ccccn7)CC6)cc5)c4)c3=O)CC2)nn1C` [Example 214, N-{cis-4-[6-fluoro-2,4-dioxo-1-{4′-[(4-pyridin-2-ylpiperazin-1-yl)methyl]biphenyl-3-yl}-1,4-dihydropyrido[2,3-d]pyrimidin-3(2H)-yl]cyclohexyl}-1,5-dimethyl-1H-pyrazole-3-carboxamide], the IC50 is 25.1 pM.

For `Cc1cc(C(=O)N[C@H]2CC[C@@H](n3c(=O)c4cc(F)cnc4n(-c4cccc(-c5ccc(CN6CCN(C7CCCC7)CC6)cc5)c4)c3=O)CC2)nn1C` [Example 215, N-{cis-4-[1-{4′-[(4-cyclopentylpiperazin-1-yl)methyl]biphenyl-3-yl}-6-fluoro-2,4-dioxo-1,4-dihydropyrido[2,3-d]pyrimidin-3(2H)-yl]cyclohexyl}-1,5-dimethyl-1H-pyrazole-3-carboxamide], the IC50 is 31.6 pM.

With `Cc1cc(C(=O)N[C@H]2CC[C@@H](n3c(=O)c4cc(F)cnc4n(-c4cccc(-c5ccc(CN6CCN(CC(=O)N(C)C)CC6)cc5)c4)c3=O)CC2)nn1C` [Example 216], the IC50 was 12.6 pM.

Consider `COCCN(C)Cc1ccc(-c2cccc(-n3c(=O)n([C@H]4CC[C@@H](NC(=O)c5cc(C)n(C)n5)CC4)c(=O)c4cc(F)cnc43)c2)cc1` [Example 217, N-{cis-4-[6-fluoro-1-(4′-{[(2-methoxyethyl)(methyl)amino]methyl}biphenyl-3-yl)-2,4-dioxo-1,4-dihydropyrido[2,3-d]pyrimidin-3(2H)-yl]cyclohexyl}-1,5-dimethyl-1H-pyrazole-3-carboxamide], for which the IC50 is 31.6 pM.

For the molecule `CC(=O)N1CCN(Cc2ccc(-c3cccc(-n4c(=O)n([C@H]5CC[C@@H](NC(=O)c6cn7c(n6)CCCC7)CC5)c(=O)c5cc(F)cnc54)c3)cc2)CC1` [Example 218, N-{cis-4-[1-{4′-[(4-acetylpiperazin-1-yl)methyl]biphenyl-3-yl}-6-fluoro-2,4-dioxo-1,4-dihydropyrido[2,3-d]pyrimidin-3(2H)-yl]cyclohexyl}-5,6,7,8-tetrahydroimidazo[1,2-a]pyridine-2-carboxamide], the IC50 is 6.31 pM.
